For assay [1], the system named is NOD mice. In words: Insulitis score / pancreatic histology of immunized NOD mice. The format is in vivo, mouse. The settings on record: NOD mice immunized subcutaneously in IFA; non-diabetic survivors at 40 weeks. The method, then: (§1) Non-diabetic mice in the subcutaneous immunization protocol that survived to 40 weeks were sacrificed at that age. Their pancreata were removed, fixed in 10% formalin and stained for light microscopic examination with hematoxylin and eosin. The slides were coded and a consensus insulitis score was determined by 3 examiners before the code was broken. The presence of insulitis was scored using a previously described dual scale that assesses both the severity of immune infiltration and the cytoarchitectural disruption. Finally, the pancreata from the modulator cell donors in the adoptive transfer studies were similarly reviewed at 10 weeks of age. Pancreata from 8 of 10 recipients (only 2 of 4 mice receiving B chain modulator cells were sacrificed) were analyzed 20 days after their adoptive transfer.

For a further assay, the system named is insulin antibodies. Kind of assay: Insulin antibodies (IAA) in serum of immunized NOD mice, competitive radiobinding assay. In kind it is in vivo, mouse. The settings on record: NOD mice immunized subcutaneously in IFA. As for the experimental part:
Littermates were divided into 3 groups. […] Complete Freund's adjuvant was avoided because of its known protective effect in NOD mice (Qin et al. [1993] J. Immunol. 150:2072-2080). […] Treatments started at 4 weeks of age and subsequent immunizations were administered at ages 12, 16, and 22 weeks. […] In addition, 2 new treatments were assessed. […] As in the first study, immunizations were given in IFA commencing at 4 weeks of age, but subsequent injections were given at 8 week intervals. In a third NOD mouse experiment, controlled by 18, 0.9% saline+IFA-treated littermates (10 female and 8 male), 18 mice received 250 μg BSA (Sigma) in IFA (10 female and 8 male). A third group of 21 littermates was treated with 100 μg of the 17 amino acid component peptide of BSA called ABBOS in IFA (11 female and 10 male).
(§2) Venous blood samples, obtained from the tail vein or retro-orbital sinus were tested serially for glucose and IAA. Blood glucose was determined using a Chemstrip bG (Boehringer Mannheim) read visually as verified by a reflectance meter. Diabetes was diagnosed when the whole blood glucose level was greater than 240 mg/dl (13.3 mmol/L). A liquid phase competitive radiobinding assay using 1:3 diluted mouse sera was used to determine IAA titer (Vardi et al. [1987] Diabetes 36:1286-1291). Normal murine levels, established from a survey of 48 mice from six different strains that were not susceptible to spontaneous diabetes were considered to be below 180 nU/ml (3 standard deviations above mean).

The test system of assay [2] is irradiated NOD recipients. Kind of assay: Adoptive co-transfer of splenocytes from immunized and acutely diabetic NOD mice to irradiated NOD recipients. The settings on record: for Transfer of protection by splenocytes of immunized mice (in words): irradiated NOD recipients, adoptive co-transfer. The format is in vivo, mouse.
Source text: At age 10 weeks, splenocyte pools were obtained from these mice, each pool comprising cells from 3 similarly treated animals. These "modulator" splenocytes were mixed with an equal number of pooled splenocytes that had been harvested from 6 untreated, acutely diabetic NOD mice. Six hours after a 700 Rad dose of γ-irradiation, 10 previously untreated, non-diabetic, 10 week old male NOD mice received an intravenous infusion containing a total of 40×10^6 cells from one of the mixtures, i.e. 3 diluent-, 3 A chain-, and 4 B chain-treated animals.
as §2, §1
The method of Kaplan and Meier (Kaplan and Meier [1958] J. Am. Stat. Assoc. 53:457-481) was used to construct life tables and the logrank Chi-square statistic was used to compare them (Mantel, N. (1966) Cancer Chemother. Rep. 50:163-170). A Student t-test or one-way ANOVA was used when appropriate to compare means. Fisher's exact test was applied to compare frequencies in the adoptive transfer studies. P-values are 2-sided.

Assay [3] concerns NOD mice. Kind of assay: Subcutaneous immunization in IFA, development of diabetes in NOD mice. The note with it: for Protective effect against diabetes (in words): subcutaneous immunization in IFA; for IDD rate (frequency of diabetes): subcutaneous immunization in IFA from 4 weeks of age, FIG. 1. The format is in vivo, mouse. The source says: NOD/Uf mice (Winter [1990] Diabetes 39:975-982) were bred and maintained in the temperature and light controlled facility of the Department of Pathology at the University of Florida. After weaning at 3-4 weeks of age, littermates were housed in groups of no more than 6 per cage. A soy and […]-based chow (Harlan, Madison, Wis.) and water were available ad libitum. Typical diabetes rates in the NOD/Uf colony at 40 weeks of age are near 90% in females and 30% in males. Littermates were divided into 3 groups. […] Complete Freund's adjuvant was avoided because of its known protective effect in NOD mice (Qin et al. [1993] J. Immunol. 150:2072-2080). […] Treatments started at 4 weeks of age and subsequent immunizations were administered at ages 12, 16, and 22 weeks. […] In addition, 2 new treatments were assessed. […] As in the first study, immunizations were given in IFA commencing at 4 weeks of age, but subsequent injections were given at 8 week intervals. In a third NOD mouse experiment, controlled by 18, 0.9% saline+IFA-treated littermates (10 female and 8 male), 18 mice received 250 μg BSA (Sigma) in IFA (10 female and 8 male). A third group of 21 littermates was treated with 100 μg of the 17 amino acid component peptide of BSA called ABBOS in IFA (11 female and 10 male). This peptide has been proposed as an environmental molecular mimic of an endogenous islet protein. Venous blood samples, obtained from the tail vein or retro-orbital sinus were tested serially for glucose and IAA. Blood glucose was determined using a Chemstrip bG (Boehringer Mannheim) read visually as verified by a reflectance meter. Diabetes was diagnosed when the whole blood glucose level was greater than 240 mg/dl (13.3 mmol/L). A liquid phase competitive radiobinding assay using 1:3 diluted mouse sera was used to determine IAA […] al. [1987] Diabetes 36:1286-1291). Normal murine levels, established from a survey of 48 mice from six different strains that were not susceptible to spontaneous diabetes were considered to be below 180 nU/ml (3 standard deviations above mean). The method of Kaplan and Meier (Kaplan and Meier [1958] J. Am. Stat. Assoc. 53:457-481) was used to construct life tables and the logrank Chi-square statistic was used to compare them (Mantel, N. (1966) Cancer Chemother. Rep. 50:163-170). A Student t-test or one-way ANOVA was used when appropriate to compare means. Fisher's exact test was applied to compare frequencies in the adoptive transfer studies.

Assay [4] deals with NOD mice. The settings on record: cited from earlier work.
Where [5] appears, read: irradiated male NOD recipients of splenocytes from treated donors plus diabetic donors, diabetic/total.

“Also recorded” adds a separate entry of the source.

Consider five substances from US5891435A, “Methods and compositions for delaying or preventing the onset of autoimmune disease” (Research Corporation Technologies, Inc., priority 1993, dated 1999).

For “B chain: recombinant human B chain insulin, given in IFA”, in the assay on NOD mice [1], the “Insulitis / pancreatic histology (in words)” value is reported as “neither insulin nor B chain immunizations diminished insulitis”. For the same substance, in the assay on insulin antibodies, the “Insulin antibody level / insulin binding activity in serum (in words)” value was “stimulated high levels of insulin antibodies; also recorded: high insulin binding activity in serum”. Moreover, the “Time for which diabetes was prevented after co-transfer” value in assay [2] (co-transfer of splenocytes from treated and acutely diabetic mice, p=0.03) is given as “at least 75 days”. Moreover, the “Transfer of protection by splenocytes of immunized mice (in words)” value in assay [2] is recorded as “able to confer the protective effect on irradiated NOD recipients”. For the same substance, in assay [2] (listed as B chain of insulin), the “Transfer of protection by splenocytes of immunized mice (in words)” value is recorded as “able to protect irradiated, recipient mice”. For the same substance, in assay [2] (setting [5]), the “Number of Diabetic Mice, Day 10” value was 0/4; the “Number of Diabetic Mice, Day 20” value is reported as 0/4; the “Number of Diabetic Mice, Day 75” value is given as 0/2. Moreover, in the assay with NOD mice [3], the “Protective effect against diabetes (in words)” value (“Protective effect” for short) is reported as “resulted in protection from diabetes; also recorded: protection conferred by subcutaneous insulin immunization was duplicated; also recorded: all of the protection was localized to the B chain” and the “IDD rate (frequency of diabetes)” value was found to be 16%. Further, the “Protective effect” value in the assay with NOD mice [3] (listed as B chain of insulin) was “reproduced the protective effect of insulin; also recorded: excellent protection against IDD”. Moreover, the “Protective effect” value in the assay on NOD mice [3] (listed as insulin B chain) is “protection equal or superior to that conferred by intact insulin”.

As for “insulin: purified porcine NPH insulin (first study) or recombinant human NPH insulin (second study, FIG. 1), given subcutaneously in incomplete Freund's adjuvant [reference compound]”, the “Insulitis / pancreatic histology (in words)” value in the assay with NOD mice [1] is “incidence and severity of insulitis were little affected, or actually increased; also recorded: not significantly reduced; also recorded: neither insulin nor B chain immunizations diminished insulitis”. Besides, in the assay with NOD mice [4] (extended prophylactic course of daily subcutaneous injections, NOD mice (Atkinson et al. 1990)), the “Protection from hyperglycemia and insulitis (in words)” value was “protected NOD mice from both hyperglycemia and islet infiltration by mononuclear leukocytes (insulitis)”. Further, the “Response to oral insulin (in words)” value in the assay on NOD mice [4] (oral, NOD mice (Zhang et al. 1991)) is given as “beneficial response”. In the assay on NOD mice [3], the “Protective effect” value is listed as “significantly reduced the incidence of diabetes; also recorded: strong protection for diabetes was achieved; also recorded: significantly reduce the incidence of IDD; also recorded: excellent protection against IDD” and the “IDD rate (frequency of diabetes)” value is on record as “under 13%”.

As for “A chain: recombinant human A chain insulin, given in IFA”, the “Insulin antibody level / insulin binding activity in serum (in words)” value in the assay with insulin antibodies is “high insulin binding activity in serum”; in the assay with insulin antibodies (listed as A), “stimulated high levels of insulin antibodies”. In addition, the “Number of Diabetic Mice, Day 10” value in assay [2] (setting [5]) is 0/3. For the same substance, the “Number of Diabetic Mice, Day 20” value in assay [2] (setting [5]) is recorded as 3/3. Further, the “Protective effect” value in the assay on NOD mice [3] is “had no protective effects”; in the assay with NOD mice [3] (listed as A chain insulin), “did not however alter the course of IDD”. Also, the “IDD rate (frequency of diabetes)” value in the assay with NOD mice [3] stood at 53%.

Turning to “glutamic acid decarboxylase [human GAD65]”, in the assay with NOD mice [3], the “Protective effect” value is “onset of diabetes has been delayed”.

“bovine serum albumin [BSA, reference compound]”: the “Protective effect” value in the assay on NOD mice [3] is listed as “had no protective effects”.
